Test results reported in the CheMixHub viscosity set.

Experiment: xn = mol fraction of the nth substance listed

CC(=O)O.OCCNCCO + CC(=O)O.NCCO
viscosity [mPa·s], 101.3 kPa
Conditions	x2 = 0.132	x2 = 0.2549	x2 = 0.3688	x2 = 0.4761	x2 = 0.5761	x2 = 0.671	x2 = 0.7597	x2 = 0.8444	x2 = 0.9235
293.15 K	2246	2377	2507	2638	2769	2900	3031	3161	3292
298.15 K	1454	1544	1635	1725	1815	1906	1996	2086	2177
303.15 K	965.1	1025	1084	1144	1204	1263	1323	1383	1442
308.15 K	657.7	698.1	738.5	778.9	819.3	859.7	900	940.4	980.8
313.15 K	459.4	487.4	515.3	543.3	571.3	599.2	627.2	655.1	683.1
318.15 K	328.1	348	367.8	387.6	407.4	427.3	447.1	466.9	486.7
323.15 K	239.3	253.7	268	282.3	296.7	311	325.3	339.7	354

CC(=O)O.OCCNCCO + O
viscosity [mPa·s], 100 kPa
Conditions	x1 = 0.0126	x2 = 0.1586	x2 = 0.2897	x2 = 0.4528	x2 = 0.5293	x2 = 0.6932	x2 = 0.8573	x2 = 0.9194	x2 = 0.9549
293.15 K	1.37	3625	2208	1042	658.3	162.6	19.25	6.362	3.027
303.15 K	1.099	1492	946.1	473.9	310.7	87.19	12.67	4.584	2.301
313.15 K	0.9188	686.5	452	239.3	162.4	51.05	8.836	3.442	1.818
323.15 K	0.7821	346.1	236.3	131.8	92.22	32.12	6.455	2.69	1.484

CCCCCCCC/C=C\CCCCCCCC(=O)OCC + CCCCO
viscosity [mPa·s], 100 kPa
Conditions	x1 = 0.1	x1 = 0.2	x1 = 0.3	x1 = 0.4	x1 = 0.5	x1 = 0.6	x1 = 0.7	x1 = 0.8	x1 = 0.9
293.15 K	3.187	3.558	3.946	4.315	4.68	5.024	5.358	5.682	6.011
298.15 K	2.818	3.143	3.481	3.808	4.131	4.437	4.732	5.013	5.31
303.15 K	2.491	2.782	3.08	3.371	3.649	3.918	4.175	4.419	4.678
308.15 K	2.217	2.48	2.746	3.002	3.25	3.486	3.713	3.931	4.16
313.15 K	1.983	2.223	2.46	2.683	2.897	3.103	3.3	3.49	3.691
318.15 K	1.776	1.998	2.214	2.421	2.62	2.81	2.991	3.165	3.35
323.15 K	1.6	1.806	2.002	2.192	2.371	2.543	2.707	2.865	3.032

C[NH+](C)C.[Cl-] + CC(=O)CCC(=O)O
101 kPa, x2 = 0.75
Conditions	viscosity [mPa·s]
293.15 K	74.02
303.15 K	42.25
313.15 K	25.57
323.15 K	17.71

CC(=O)OCCC(C)C + ClC(Cl)Cl
303.15 K, 101.3 kPa
Conditions	viscosity [mPa·s]
x1 = 0.1037	0.5821
x1 = 0.2076	0.6427
x1 = 0.301	0.6846
x1 = 0.3983	0.7145
x1 = 0.5044	0.7309
x1 = 0.6009	0.7377
x1 = 0.6966	0.7338
x1 = 0.8058	0.7252
x1 = 0.8911	0.7143

CC(=O)OCCC(C)C + Cc1ccc(C)cc1
viscosity [mPa·s], 101 kPa
Conditions	298.15 K	308.15 K
x1 = 0.0453	0.615	0.54
x1 = 0.1495	0.617	0.55
x1 = 0.2436	0.622	0.561
x1 = 0.3501	0.632	0.576
x1 = 0.4497	0.644	0.594
x1 = 0.4974	0.651	0.603
x1 = 0.5484	0.659	0.613
x1 = 0.6458	0.678	0.636
x1 = 0.7503	0.702	0.663
x1 = 0.8492	0.73	0.693
x1 = 0.9411	0.76	0.725

CC(=O)OCCC(C)C + c1ccccc1
viscosity [mPa·s], 101 kPa
Conditions	298.15 K	308.15 K
x1 = 0.0442	0.606	0.532
x1 = 0.1509	0.614	0.547
x1 = 0.2507	0.623	0.563
x1 = 0.3514	0.635	0.58
x1 = 0.4526	0.65	0.6
x1 = 0.4814	0.655	0.606
x1 = 0.5508	0.667	0.621
x1 = 0.6491	0.686	0.644
x1 = 0.7484	0.709	0.67
x1 = 0.8475	0.735	0.698
x1 = 0.9443	0.763	0.728
